{
  "source": "paper PMC7674646",
  "about": "“Structural and Functional Analyses of the Transcription Repressor DgoR From Escherichia coli Reveal a Divalent Metal-Containing D-Galactonate Binding Pocket” (Frontiers in Microbiology, 2020)",
  "key": {"[1]": {"molecular_target": "EcoDgoR / dgo cis-acting element (Escherichia coli, UniProt P31460)", "sequence (P31460 whole entry)": "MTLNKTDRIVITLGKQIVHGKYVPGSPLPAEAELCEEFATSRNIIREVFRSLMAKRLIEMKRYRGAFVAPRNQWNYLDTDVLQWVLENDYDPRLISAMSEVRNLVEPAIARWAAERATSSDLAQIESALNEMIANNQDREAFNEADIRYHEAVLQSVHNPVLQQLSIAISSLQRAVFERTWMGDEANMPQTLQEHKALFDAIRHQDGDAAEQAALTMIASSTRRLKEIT", "experiment": "EMSA of WT EcoDgoR with dgo cis-acting element", "assay_type": "biochemical", "conditions": "for effect on stability of EcoDgoR/DNA complex (EMSA): EDTA-treated EcoDgoR, 0.5 mM sugar plus divalent metal cation (Zn2+, Ca2+ or Mg2+); for effect on EcoDgoR/DNA complex (EMSA): EcoDgoR pre-incubated with 5 mM EDTA, sugar alone (0.5 mM), no metal added; for effect on DNA bound by EcoDgoR (EMSA): WT EcoDgoR, 0.5 mM sugar", "text": "(§1) For expression of the recombinant DgoR mutants (i.e., R102A, D146A, H150A, Q173A, R179A, W181A, D184A, T191A, H195A, S221A, R224A, and R224E), the wild-type E. coli dgoR gene on the expression plasmid pET28a was mutated using the site-directed mutagenesis method. The dgo cis-acting element region of E. coli K12 was generated by PCR and subsequently inserted into the HincII site of pUC18. The obtained plasmid was used as the template for preparation of the Cy5-labeled probes using the universal primer pair of Cy5-labeled dgoRcis-acting_F and dgoRcis-acting_R. Cy5-labeled probe (100 ng) was incubated with different amounts of dgoR or its mutants at 25°C for 20 min in a buffer comprising of 25 mM Tris-HCl (pH 8.0), 50 mM KCl, 2.5 mM MgCl2, 5% glycerol, 1 mM dithiothreitol (DTT), and 100 μg/mL sonicated salmon sperm DNA (Sangon) (total volume 20 μl). The resulting DNA-protein complexes were subjected to electrophoresis on native PAGE gels at 100 V, 4°C for 2.5 h in a running buffer containing 25 mM Tris-HCl (pH 7.8) and 250 mM glycine. After electrophoresis, gels were directly scanned for fluorescent DNAs using an ImageQuantTM LAS 4000 system (GE Healthcare). For EMSAs in the presence or absence of D-galactonate or D-glucose, 0.5 mM D-galactonate or D-glucose was applied."}, "[2]": {"molecular_target": "EcoDgoR W181A / dgo cis-acting element (Escherichia coli, UniProt P31460, W181A)", "sequence (P31460 whole entry W181A)": "as the sequence (P31460 whole entry) above, with W181A counted along it", "experiment": "EMSA of EcoDgoR W181A with dgo cis-acting element", "assay_type": "biochemical", "conditions": "presence vs absence of 0.5 mM D-galactonate", "text": "as §1"}, "[3]": {"molecular_target": "EcoDgoR D146A / dgo cis-acting element (Escherichia coli, UniProt P31460, D146A)", "sequence (P31460 whole entry D146A)": "as the sequence (P31460 whole entry) above, with D146A counted along it", "experiment": "EMSA of EcoDgoR D146A with dgo cis-acting element", "assay_type": "biochemical", "conditions": "supplementation of D-galactonate", "text": "as §1"}, "EcoDgoR H150A": {"molecular_target": "EcoDgoR H150A (Escherichia coli, UniProt P31460, H150A)", "sequence (P31460 whole entry H150A)": "as the sequence (P31460 whole entry) above, with H150A counted along it", "experiment": "MST binding assay, EcoDgoR H150A mutant", "description": "(§2) His-tagged DgoR and its derivatives were labeled with the NT-647-NHS dye using the Monolith NT^TM Protein Labeling Kit RED-NHS (NanoTemper Technologies) ([Magnez et al., 2017]; [Welsch et al., 2017]). Serially diluted unlabeled proteins and 100 nM of labeled DgoR or its derivatives were incubated for 15 min at room temperature in binding buffer (1.8 mM KH2PO4, 10 mM Na2HPO4, 137 mM NaCl, 2.7 mM KCl, and 0.05% Tween-20, pH 7.8) in a final volume of 20 μL. Subsequently, samples were loaded into NT.115 premium coated capillaries (NanoTemper Technologies). Binding experiments were performed using a Monolith NT.115 Pico apparatus (NanoTemper Technologies) with the following parameters: LED power 5 %, MST Power high. MST traces were analyzed between 4.00 and 5.00 s after turning on the IR-Laser. Measurements were carried out with D-galactonate. For each experiment, the unlabeled proteins were produced from independent preparations. Results were obtained with the MO Control software version 1.6. MO Affinity Analysis software version 2.3 was used to determine the fraction of the formed complex. Apparent dissociation constants (Kd) were calculated using nonlinear fitting assuming one specific binding site with the GraphPad Prism 7 software with the following formula\n(§3) (whereBisMaxthemaximumtheoreticalspecificbinding,hereB=Max1)."}, "[4]": {"molecular_target": "EcoDgoR T191A / dgo cis-acting element (Escherichia coli, UniProt P31460, T191A)", "sequence (P31460 whole entry T191A)": "as the sequence (P31460 whole entry) above, with T191A counted along it", "experiment": "EMSA of EcoDgoR T191A with dgo cis-acting element", "assay_type": "biochemical", "conditions": "T191A 8 μM, 0.5 mM D-galactonate", "text": "as §1"}, "[5]": {"molecular_target": "EcoDgoR Q173A / dgo cis-acting element (Escherichia coli, UniProt P31460, Q173A)", "sequence (P31460 whole entry Q173A)": "as the sequence (P31460 whole entry) above, with Q173A counted along it", "experiment": "EMSA of EcoDgoR Q173A with dgo cis-acting element", "assay_type": "biochemical", "conditions": "Q173A 8 μM, 0.5 mM D-galactonate", "text": "as §1"}, "[6]": {"molecular_target": "EcoDgoR D184A / dgo cis-acting element (Escherichia coli, UniProt P31460, D184A)", "sequence (P31460 whole entry D184A)": "as the sequence (P31460 whole entry) above, with D184A counted along it", "experiment": "EMSA of EcoDgoR D184A with dgo cis-acting element", "assay_type": "biochemical", "conditions": "D184A 8 μM, 0.5 mM D-galactonate", "text": "as §1"}, "EcoDgoR R102A": {"molecular_target": "EcoDgoR R102A (Escherichia coli, UniProt P31460, R102A)", "sequence (P31460 whole entry R102A)": "as the sequence (P31460 whole entry) above, with R102A counted along it", "experiment": "MST binding assay, EcoDgoR R102A mutant", "description": "as §2, §3"}, "EcoDgoR R224A": {"molecular_target": "EcoDgoR R224A (Escherichia coli, UniProt P31460, R224A)", "sequence (P31460 whole entry R224A)": "as the sequence (P31460 whole entry) above, with R224A counted along it", "experiment": "MST binding assay, EcoDgoR R224A mutant", "description": "as §2, §3"}, "EcoDgoR W181A": {"molecular_target": "EcoDgoR W181A (Escherichia coli, UniProt P31460, W181A)", "sequence (P31460 whole entry W181A)": "as the sequence (P31460 whole entry) above, with W181A counted along it", "experiment": "MST binding assay, EcoDgoR W181A mutant", "description": "as §2, §3"}, "[7]": {"molecular_target": "EcoDgoR R179A / dgo cis-acting element (Escherichia coli, UniProt P31460, R179A)", "sequence (P31460 whole entry R179A)": "as the sequence (P31460 whole entry) above, with R179A counted along it", "experiment": "EMSA of EcoDgoR R179A with dgo cis-acting element", "assay_type": "biochemical", "conditions": "presence vs absence of 0.5 mM D-galactonate", "text": "as §1"}, "[8]": {"molecular_target": "EcoDgoR H195A / dgo cis-acting element (Escherichia coli, UniProt P31460, H195A)", "sequence (P31460 whole entry H195A)": "as the sequence (P31460 whole entry) above, with H195A counted along it", "experiment": "EMSA of EcoDgoR H195A with dgo cis-acting element", "assay_type": "biochemical", "conditions": "0.5 mM D-galactonate", "text": "as §1"}, "[9]": {"molecular_target": "EcoDgoR R102A / dgo cis-acting element (Escherichia coli, UniProt P31460, R102A)", "sequence (P31460 whole entry R102A)": "as the sequence (P31460 whole entry) above, with R102A counted along it", "experiment": "EMSA of EcoDgoR R102A with dgo cis-acting element", "assay_type": "biochemical", "conditions": "R102A 8 μM, 0.5 mM D-galactonate", "text": "as §1"}, "[10]": {"molecular_target": "EcoDgoR R224A / dgo cis-acting element (Escherichia coli, UniProt P31460, R224A)", "sequence (P31460 whole entry R224A)": "as the sequence (P31460 whole entry) above, with R224A counted along it", "experiment": "EMSA of EcoDgoR R224A with dgo cis-acting element", "assay_type": "biochemical", "conditions": "0.5 mM D-galactonate", "text": "as §1"}, "[11]": {"molecular_target": "EcoDgoR H150A / dgo cis-acting element (Escherichia coli, UniProt P31460, H150A)", "sequence (P31460 whole entry H150A)": "as the sequence (P31460 whole entry) above, with H150A counted along it", "experiment": "EMSA of EcoDgoR H150A with dgo cis-acting element", "assay_type": "biochemical", "conditions": "0.5 mM D-galactonate", "text": "as §1"}, "EcoDgoR T191A": {"molecular_target": "EcoDgoR T191A (Escherichia coli, UniProt P31460, T191A)", "sequence (P31460 whole entry T191A)": "as the sequence (P31460 whole entry) above, with T191A counted along it", "experiment": "MST binding assay, EcoDgoR T191A mutant", "description": "as §2, §3"}, "[12]": {"molecular_target": "EcoDgoR S221A / dgo cis-acting element (Escherichia coli, UniProt P31460, S221A)", "sequence (P31460 whole entry S221A)": "as the sequence (P31460 whole entry) above, with S221A counted along it", "experiment": "EMSA of EcoDgoR S221A with dgo cis-acting element", "assay_type": "biochemical", "conditions": "supplementation of D-galactonate", "text": "as §1"}, "WT-EcoDgoR": {"molecular_target": "WT-EcoDgoR (Escherichia coli, UniProt P31460)", "sequence (P31460 whole entry)": "as the sequence (P31460 whole entry) above", "experiment": "MST binding assay, D-galactonate to wild-type EcoDgoR", "description": "as §2, §3"}, "[13]": {"molecular_target": "EcoDgoR R224E / dgo cis-acting element (Escherichia coli, UniProt P31460, R224E)", "sequence (P31460 whole entry R224E)": "as the sequence (P31460 whole entry) above, with R224E counted along it", "experiment": "EMSA of EcoDgoR R224E with dgo cis-acting element", "assay_type": "biochemical", "conditions": "0.5 mM D-galactonate", "text": "as §1"}},
  "note": "“And” between values parts separate entries of the source, which are not always exact repeats. Identical values can stand only once.",
  "data": [
    {"compound": "OC[C@H]1OC(O)[C@H](O)[C@@H](O)[C@@H]1O", "note": "(stereo partly drawn) [D-glucose]", "values": [
      {"measurement": "effect on stability of EcoDgoR/DNA complex (EMSA)", "setting": "[1]", "value": "not affected significantly"},
      {"measurement": "effect on EcoDgoR/DNA complex (EMSA)", "setting": "[1]", "value": "didn’t disrupt the formation of stable protein/DNA complexes"},
      {"measurement": "effect on DNA bound by EcoDgoR (EMSA)", "setting": "[1]", "value": "did not display such effect"}
    ]},
    {"compound": "O=C(O)[C@H](O)[C@@H](O)[C@@H](O)[C@H](O)CO", "note": "[D-galactonate]", "values": [
      {"measurement": "effect on DNA binding of mutant (EMSA)", "setting": "[2]", "value": "no significant difference in DNA binding affinity"},
      {"measurement": "effect on DNA binding of mutant (EMSA)", "setting": "[3]", "value": "slightly decreased their ability to bind DNA"},
      {"measurement": "Kd", "setting": "EcoDgoR H150A", "value": "4.99 ± 1.02", "unit": "mM"},
      {"measurement": "effect on DNA binding of mutant (EMSA)", "setting": "[4]", "value": "restored their DNA binding ability to some extent"},
      {"measurement": "effect on DNA binding of mutant (EMSA)", "setting": "[5]", "value": "restored their DNA binding ability to some extent"},
      {"measurement": "effect on DNA binding of mutant (EMSA)", "setting": "[6]", "value": "restored their DNA binding ability to some extent"},
      {"measurement": "Kd", "setting": "EcoDgoR R102A", "value": "> 50", "unit": "mM"},
      {"measurement": "interaction with D-galactonate (MST)", "setting": "EcoDgoR R102A; R102A mutant", "value": "did not interact"},
      {"measurement": "Kd", "setting": "EcoDgoR R224A", "value": "> 50", "unit": "mM"},
      {"measurement": "interaction with D-galactonate (MST)", "setting": "EcoDgoR R224A; R224A mutant", "value": "did not interact"},
      {"measurement": "Kd", "setting": "EcoDgoR W181A", "value": "> 50", "unit": "mM"},
      {"measurement": "interaction with D-galactonate (MST)", "setting": "EcoDgoR W181A; W181A mutant", "value": "did not interact"},
      {"measurement": "effect on DNA binding of mutant (EMSA)", "setting": "[7]", "value": "no significant difference in DNA binding affinity"},
      {"measurement": "effect on DNA binding of mutant (EMSA)", "setting": "[8]", "value": "remain inability to bind DNA"},
      {"measurement": "effect on DNA binding of mutant (EMSA)", "setting": "[9]", "value": "restored their DNA binding ability to some extent"},
      {"measurement": "effect on stability of EcoDgoR/DNA complex (EMSA)", "setting": "[1]", "value": "decreased the stability of EcoDgoR/DNA complex"},
      {"measurement": "effect on EcoDgoR/DNA complex (EMSA)", "setting": "[1]", "value": "didn’t disrupt the formation of stable protein/DNA complexes"},
      {"measurement": "effect on DNA bound by EcoDgoR (EMSA)", "setting": "[1]", "value": "relieved DNA bound by EcoDgoR in a concentration-dependent manner"},
      {"measurement": "effect on DNA binding of mutant (EMSA)", "setting": "[10]", "value": "remain inability to bind DNA"},
      {"measurement": "effect on DNA binding of mutant (EMSA)", "setting": "[11]", "value": "remain inability to bind DNA"},
      {"measurement": "Kd", "setting": "EcoDgoR T191A", "value": "> 50", "unit": "mM"},
      {"measurement": "interaction with D-galactonate (MST)", "setting": "EcoDgoR T191A; T191A mutant", "value": "did not interact"},
      {"measurement": "effect on DNA binding of mutant (EMSA)", "setting": "[12]", "value": "slightly decreased their ability to bind DNA"},
      {"measurement": "Kd", "setting": "WT-EcoDgoR; WT EcoDgoR 100 nM, D-galactonate 305 nM to 10 mM", "value": "~0.22 mM and 0.22 mM"},
      {"measurement": "Kd", "setting": "WT-EcoDgoR; WT EcoDgoR after EDTA incubation", "value": "30 ± 20.3", "unit": "mM"},
      {"measurement": "effect on DNA binding of mutant (EMSA)", "setting": "[13]", "value": "remain inability to bind DNA"}
    ]}
  ]
}
